Test system: TEAD-dependent transcription
Assay: Inhibitor activity against TEAD-dependent transcription in a cell-based reporter assay (MSTO-211H+12XGTIIC luciferase)
Conditions: Homo sapiens; MSTO-211H+12XGTIIC cells, 24 hours compound incubation, luminescence normalized to cell viability signal; read-out: MSTO-211H GMean IC50 (uM) Cell Assay Reporter Cell Variant: TEAD
Source text: Determine Inhibitor Activity Against TEAD-Dependent Transcription in a Cell-Based Reporter Assay
The human mesothelioma cell line MSTO-211H was stably transfected with a pGL4.21 plasmid containing a synthetic promoter with 12 copies of the GTIIC TEAD response element that drives the expression of a luciferase reporter gene 1 using Lipofectamine transfection reagent (Thermo Fisher). Transfected cells were selected using puromycin and single cell clones expressing this construct (referred to as MSTO-211H+12XGTIIC) were generated by limiting dilution. MSTO-211H cells was characterized by genetic alterations in key components of the Hippo pathway^2, resulting in up-regulation of YAP/TEAD-mediated transcription. […] To evaluate TEAD inhibitors, the MSTO-211H+12XGTIIC cell line was seeded in a 96-well plate in 50 μL of culture media at 1×10^4 cells per well and incubated at 37° C. overnight. Serial dilutions of compounds (in total volume of 50 μL of culture media) were added to the cells and incubated at 37° C. for 24 hours. Each plate included cells treated with DMSO as high controls and cells treated with 20 μM of the reference compound K-975 (a known TEAD inhibitor) 3 as low controls. Cell viability was assayed by the addition of 25 μL of CellTiter-Fluor reagent (Promega) followed by a 30-minute incubation at 37° C. and quantification of the fluorescence signal (Ex400/Em505). Subsequently, luciferase expression was assayed by the addition of 25 μL of ONE-Glo reagent (Promega) followed by a 10-minute incubation at room temperature and quantification of the luminescence signal. The luminescence signal was normalized to the fluorescence signal to correct for any loss in cell viability over the 24-hour compound incubation period. The percentage of inhibition of normalized luminescence signal, indicative of compound-mediated inhibition of TEAD-dependent transcription, at individual compound concentrations relative to high and low controls was calculated. The data were analyzed by using nonlinear regression to generate IC50 values for individual compounds.

| Structure (SMILES) | IC50 |
| --- | --- |
| CS(=O)(=O)N1CC(N2CCc3c(cccc3Oc3ccc(C(F)(F)F)cc3)C2)C1 [O-0115, 2-(1-(methylsulfonyl)azetidin-3-yl)-5-(4-(trifluoromethyl)phenoxy)-1,2,3,4-tetrahydroiso-quinoline] | 0.001 to 10 µM |
| C=CS(=O)(=O)N1CCc2cc(Oc3ccc(C(F)(F)F)cc3)ccc2C1 [O-0064, 6-(4-(trifluoromethyl)phenoxy)-2-(vinylsulfonyl)-1,2,3,4-tetrahydroisoquinoline] | 0.001 to 10 µM |
| O=S(=O)(N1CC(N2CCc3c(cccc3Oc3ccc(C(F)(F)F)cc3)C2)C1)C(F)(F)F [O-0116, 5-(4-(trifluoromethyl)phenoxy)-2-(1-((trifluoromethyl)sulfonyl)azetidin-3-yl)-1,2,3,4-tetrahydroisoquinoline] | 0.001 to 10 µM |
| O=S(=O)(N1CCC(N2CCc3c(cccc3Oc3ccc(C(F)(F)F)cc3)C2)CC1)C(F)(F)F [O-0121, 5-(4-(trifluoromethyl)phenoxy)-2-(1-((trifluoromethyl)sulfonyl)piperidin-4-yl)-1,2,3,4-tetrahydroisoquinoline] | 0.001 to 10 µM |
| CCCNS(=O)(=O)c1nc(C(=O)N2CCc3c(cccc3Oc3ccc(C(F)(F)F)cc3)C2)cs1 [O-0105, N-propyl-4-(5-(4-(trifluoromethyl)phenoxy)-1,2,3,4-tetrahydroisoquinoline-2-carbonyl)thiazole-2-sulfonamide] | 0.001 to 10 µM |
| C=CC(=O)N1CCc2cc(Oc3ccc(C(F)(F)F)cc3)ccc2C1 [O-0058, 1-(6-(4-(trifluoromethyl)phenoxy)-3,4-dihydroisoquinolin-2(1H)-yl)prop-2-en-1-one] | 0.001 to 10 µM |
| C=CS(=O)(=O)N1CCC(N2CCc3c(cccc3Oc3ccc(C(F)(F)F)cc3)C2)C1 (stereo not shown) [O-0113, 5-(4-(trifluoromethyl)phenoxy)-2-(1-(vinylsulfonyl)pyrrolidin-3-yl)-1,2,3,4-tetrahydroisoquinoline] | 0.001 to 10 µM |
| CS(=O)(=O)Nc1nc(C(=O)N2CCc3c(cccc3Oc3ccc(C(F)(F)F)cc3)C2)cs1 [O-0110, N-(4-(5-(4-(trifluoromethyl)phenoxy)-1,2,3,4-tetrahydroisoquinoline-2-carbonyl)thiazol-2-yl)methanesulfonamide] | 0.001 to 10 µM |
| O=C(c1c[nH]c(C(F)(F)F)n1)N1CCc2cc(Oc3ccc(C(F)(F)F)cc3)ccc2C1 [O-0074, (2-(trifluoromethyl)-1H-imidazol-4-yl)(6-(4-(trifluoromethyl)phenoxy)-3,4-dihydroisoquinolin-2(1H)-yl)methanone] | 0.001 to 10 µM |
| O=S(=O)(N1CCC(N2CCc3c(cccc3Oc3ccc(C(F)(F)F)cc3)C2)C1)C(F)(F)F (stereo not shown) [O-0112, 5-(4-(trifluoromethyl)phenoxy)-2-(1-((trifluoromethyl)sulfonyl)pyrrolidin-3-yl)-1,2,3,4-tetrahydroisoquinoline.] | 0.001 to 10 µM |
| O=C(CCS(=O)(=O)C(F)(F)F)N1CCc2c(cccc2Oc2ccc(C(F)(F)F)nc2)C1 [O-0002, 1-(5-((6-(trifluoromethyl)pyridin-3-yl)oxy)-3,4-dihydroisoquinolin-2(1H)-yl)-3-((trifluoromethyl)sulfonyl)propan-1-one] | 0.001 to 10 µM |
| C=CC(=O)N1CCC(N2CCc3c(cccc3Oc3ccc(C(F)(F)F)cc3)C2)C1 (stereo not shown) [O-0114, 1-(3-(5-(4-(trifluoromethyl)phenoxy)-3,4-dihydroisoquinolin-2(1H)-yl)pyrrolidin-1-yl)prop-2-en-1-one] | 0.001 to 10 µM |
| CNS(=O)(=O)c1nc(C(=O)N2CCc3c(cccc3Oc3ccc(C(F)(F)F)cc3)C2)cs1 [O-0107, N-methyl-4-(5-(4-(trifluoromethyl)phenoxy)-1,2,3,4-tetrahydroisoquinoline-2-carbonyl)thiazole-2-sulfonamide] | 0.001 to 10 µM |
| O=C(CCl)N1CCc2cc(Oc3ccc(C(F)(F)F)cc3)ccc2C1 [O-0070, 2-chloro-1-(6-(4-(trifluoromethyl)phenoxy)-3,4-dihydroisoquinolin-2(1H)-yl)ethan-1-one] | 0.001 to 10 µM |
| CS(=O)(=O)Nc1nc(C(=O)N2CCc3c(cccc3Oc3ccc(C(F)(F)F)c(F)c3)C2)co1 [O-0106, N-(4-(5-(3-fluoro-4-(trifluoromethyl)phenoxy)-1,2,3,4-tetrahydroisoquinoline-2-carbonyl)oxazol-2-yl)methanesulfonamide] | 10 to 100 µM |
| O=S(=O)(c1ccccc1)N1CCc2cc(Oc3ccc(C(F)(F)F)cc3)ccc2C1 [O-0104, 2-(phenylsulfonyl)-6-(4-(trifluoromethyl)phenoxy)-1,2,3,4-tetrahydroisoquinoline] | 10 to 100 µM |
| O=C(CCS(=O)(=O)C(F)(F)F)N1CCc2c(ncnc2Oc2ccc(C(F)(F)F)cc2)C1 [O-0003, 1-(4-(4-(trifluoromethyl)phenoxy)-5,8-dihydropyrido[3,4-d]pyrimidin-7(6H)-yl)-3-((trifluoromethyl)sulfonyl)propan-1-one] | 0.001 to 10 µM |
| CS(=O)(=O)N1CCC(N2CCc3c(cccc3Oc3ccc(C(F)(F)F)cc3)C2)CC1 [O-0120, 2-(1-(methylsulfonyl)piperidin-4-yl)-5-(4-(trifluoromethyl)phenoxy)-1,2,3,4-tetrahydroisoquinoline] | 0.001 to 10 µM |
| CCNS(=O)(=O)c1nc(C(=O)N2CCc3c(cccc3Oc3ccc(C(F)(F)F)cc3)C2)cs1 [O-0108, N-ethyl-4-(5-(4-(trifluoromethyl)phenoxy)-1,2,3,4-tetrahydroisoquinoline-2-carbonyl)thiazole-2-sulfonamide] | 0.001 to 10 µM |
| CS(=O)(=O)N1CCCC(N2CCc3c(cccc3Oc3ccc(C(F)(F)F)cc3)C2)C1 (stereo not shown) [O-0111, 2-(1-(methylsulfonyl)piperidin-3-yl)-5-(4-(trifluoromethyl)phenoxy)-1,2,3,4-tetrahydroisoquinoline] | 0.001 to 10 µM |
| CS(=O)(=O)Nc1nc(C(=O)N2CCc3c(cccc3Oc3ccc(C(F)(F)F)c(F)c3)C2)cs1 [O-0109, N-(4-(5-(3-fluoro-4-(trifluoromethyl)phenoxy)-1,2,3,4-tetrahydroisoquinoline-2-carbonyl)thiazol-2-yl)methanesulfonamide] | 10 to 100 µM |
| C=CS(=O)(=O)N1CC(N2CCc3c(cccc3Oc3ccc(C(F)(F)F)cc3)C2)C1 [O-0118, 5-(4-(trifluoromethyl)phenoxy)-2-(1-(vinylsulfonyl)azetidin-3-yl)-1,2,3,4-tetrahydroisoquinoline.] | 10 to 100 µM |
| C=CC(=O)N1CCC(N2CCc3c(cccc3Oc3ccc(C(F)(F)F)cc3)C2)CC1 [O-0123, 1-(4-(5-(4-(trifluoromethyl)phenoxy)-3,4-dihydroisoquinolin-2(1H)-yl)piperidin-1-yl)prop-2-en-1-one] | 0.001 to 10 µM |
| C=CS(=O)(=O)N1CCC(N2CCc3c(cccc3Oc3ccc(C(F)(F)F)cc3)C2)CC1 [O-0122, 5-(4-(trifluoromethyl)phenoxy)-2-(1-(vinylsulfonyl)piperidin-4-yl)-1,2,3,4-tetrahydroisoquinoline] | 10 to 100 µM |
| C=CC(=O)N1CC(N2CCc3c(cccc3Oc3ccc(C(F)(F)F)cc3)C2)C1 [O-0119, 1-(3-(5-(4-(trifluoromethyl)phenoxy)-3,4-dihydroisoquinolin-2(1H)-yl)azetidin-1-yl)prop-2-en-1-one] | 0.001 to 10 µM |
